Literature values as cited in US20030008844A1, “Use of sulodexide for the treatment of inflammatory bowel disease” (Keryx Biopharmaceuticals, Inc., priority 2001, published 2003).

Columns and labels:
[1] = system: steroid-dependent chronically active Crohn's disease; conditions: placebo-controlled trial
perianal Crohn's disease = conditions: uncontrolled trials
ulcerative colitis = conditions: placebo-controlled trial
mild to moderate UC = conditions: oral

CN(Cc1cnc2nc(N)nc(N)c2n1)c1ccc(C(=O)N[C@@H](CCC(=O)O)C(=O)O)cc1 [methotrexate, Methotrexate]
rates of clinical remission [1]: substantially improved

Cc1ncc([N+](=O)[O-])n1CCO [metronidazole]
patients showing improvements (perianal Crohn's disease): practically all patients showed improvements

CN1CCCC1c1cccnc1 (stereo not shown) [nicotine, Nicotine]
maintaining remission of ulcerative colitis (ulcerative colitis): ineffective

O=C(O)c1cc(/N=N/c2ccc(S(=O)(=O)Nc3ccccn3)cc2)ccc1O [sulfasalazine]
efficacy in treatment of mild to moderate UC (mild to moderate UC): superior to placebo and similar or superior to steroid enemas
